Results reported in patent US6565892B2, “Synergistic fungicidal composition comprising a compound analogous to strobilurin” (Rhone-Poulenc Agrochimie, priority 1995, dated 2003).
In brackets after ≈: the same amount, converted by molar mass. Read-outs that look alike come from different tables or passages of the source.

System: Plasmopara viticola
Experiment: In vivo test with respect to Plasmopara viticola (grape downy mildew) on Chardonnay vine cuttings, preventive treatment 72 hours before infection
Details: in Vitis vinifera, spray 72 h before infection, reading 7 days after infection, read-out: dose of A alone which it is necessary to apply for the destruction of 50% of the parasite
Experimental: A suspension comprising the compounds A and B in a liquid mixture composed of a surface-active agent (oleate of polyoxyethylenated derivative of sorbitan) and water is prepared.
The component B is fosetyl-Al; the A/B ratio is 0.05, 0.07 and 0.1 (B/A=20, 15 and 10).
Vine (Vitis vinifera) cuttings, variety Chardonnay, are grown in small pots. When these seedlings are 2 months old (8- to 10-leaf stage, height of 10 to 15 cm), they are treated by spraying with the above suspension.
After 72 hours, each seedling is infected by spraying with an aqueous suspension of spores of Plasmopara viticola, which suspension is obtained from sporulated leaves infected 7 days previously. These spores are suspended at a concentration of 100,000 units per cm^3 of inoculum. Infection is carried out by spraying the inoculum at the undersurface of the leaves.
The infected seedlings are then incubated for seven days at 20-22° C. at 90-100% relative humidity under natural light.
Reading is carried out 7 days after infection, in comparison with the control seedlings.
The results obtained are reported in the form of points, corresponding to 50% destruction of the parasite, and are plotted on a Tammes isobole diagram which contains, on the abscissa, the doses of A expressed in ppm (mg/l) and, on the ordinate, the doses of B, also in ppm (mg/l). […]

| SMILES | EC50 (A = ICIA5504 alone) [µg/mL] | EC50 (A = SSF-129 alone) [µg/mL] |
| --- | --- | --- |
| CO/C=C(/C(=O)OC)c1ccccc1Oc1cc(Oc2ccccc2C#N)ncn1 [ICIA5504, methyl (E)-2-{2-[6-(2-cyanophenoxy)pyrimidin-4-yloxy]phenyl}-3-methoxyacrylate] | 1.5 (≈ 3.72 µM) | – |
| CNC(=O)/C(=N/OC)c1ccccc1COc1cc(C)ccc1C [SSF-129, N-methyl-(E)-methoxyimino[2-(2,5-dimethylphenoxymethyl)phenyl]acetamide] | – | 4.6 (≈ 14.1 µM) |
